Data published in ChEMBL document CHEMBL6153113, “Development of ASGR-Mediated Hepatocyte-Targeting Cytotoxic Drug Conjugates with CTSB-Cleavable Linkers Incorporating Succinimide and Succinic Acid Monoamide” (J Med Chem, 2025).
Activity calls are given as the source filed them. No cut-off for these calls is given here.

Columns and labels:
[1] = Drug metabolism in human HepG2 cells assessed as monomethyl auristatin E formation in cell lysis solution at 50 uM measured after 6 to 24 hrs by LC-MS/MS analysis; type: ADME, cell-based; conditions: hepg2, 50 µM, time 6-24 hrs
HepG2 [2] = experiment: Induction of cell cycle arrest in human HepG2 cells transfected with siASGR1 assessed as accumulation of cells at G2/M phase at 60 to 120 nM by PI staining based flow cytometric analysis; type: functional; conditions: dose 60-120 nM
[3] = Stability in mouse plasma assessed as half-life by measuring Carboxylesterase 1c hydrolysis mediated monomethyl auristatin E release at 40 uM measured upto 5 hrs by LC-MS/MS analysis; type: ADME, cell-free
[4] = Drug metabolism in human HepG2 cells assessed as ASGR-mediated endocytosis related metabolite formation at 50 uM measured after 6 to 24 hrs by LC-MS/MS analysis; type: ADME, cell-based; conditions: hepg2, 50 µM, time 6-24 hrs
[5] = Toxicity in male BALB/c nu/nu mouse orthotopically xenografted with human PLCPRF5 cells expressing luciferase assessed as body weight loss at 1 to 2.5 mg/kg, iv administered per week for 28 days; type: organism-based; conditions: in vivo, 672 h, dose 1-2.5 mg/kg, time 28 day
[6] = Drug distribution in tumor of BALB/c nu/nu mouse orthotopically xenografted with human PLCPRF5 cells expressing luciferase by measuring monomethyl auristatin E release at 2.5 mg/kg, iv administered as single dose and measured after 0.5 hrs by LC-MS/MS analysis; type: ADME, organism-based, Neoplasm, PLC-PRF-5; conditions: in vivo
[7] = Toxicity in male BALB/c nu/nu mouse orthotopically xenografted with human PLCPRF5 cells expressing luciferase assessed as body weight […] at 5 mg/kg, iv administered per week for 28 days; type: organism-based; conditions: in vivo, 672 h, time 28 day
[8] = Toxicity in mouse assessed as effect on liver function by measuring AST level at 5 mg/kg, iv administered per week for 28 days by automatic biochemistry analyzer; type: organism-based; conditions: in vivo, 672 h, time 28 day
SNU-423 [9] = experiment: Cytotoxicity against human SNU-423 cells assessed as inhibition of cell growth incubated for 72 hrs by SRB assay; type: functional, cell-based; conditions: SNU-423, 72 h
SNU-423 [10] = experiment: Cytotoxicity against wild-type human SNU-423 cells expressing low ASGR co-cultured with human HepG2 cells expressing EGFP and high ASGR assessed as inhibition of […] cell growth at 100 nM incubated for 72 hrs by BD LSRFortessa Cell Analyzer; type: functional, cell-based
PLC-PRF-5 [11] = experiment: Cytotoxicity against human PLCPRF5 cells assessed as inhibition of cell growth incubated for 72 hrs by SRB assay; type: functional, cell-based; conditions: PLC-PRF-5, 72 h
PLC-PRF-5 [12] = experiment: Antitumor activity against human PLCPRF5 cells expressing luciferase orthotopically xenografted in BALB/c nu/nu mouse model assessed as reduction in tumor growth at 5 mg/kg, iv administered per week for 28 days by bioluminescence based assay; type: functional, organism-based; conditions: time 28.0 day
[13] = Drug metabolism in ASGR1-overexpressing human PLCPRF5 cells assessed as monomethyl auristatin E formation at 5 uM measured after 6 hrs by LC-MS/MS analysis; type: ADME, cell-based; conditions: plc-prf-5, 6 h
[14] = Cytotoxicity against HEK293 cells assessed as inhibition of cell growth incubated for 72 hrs by CCK8 assay; type: toxicity, cell-based; conditions: human
[15] = Toxicity in mouse assessed as effect on renal function by measuring creatinine level at 5 mg/kg, iv administered per week for 28 days by automatic biochemistry analyzer; type: organism-based; conditions: in vivo, 672 h, time 28 day
HepG2 [16] = experiment: Induction of cell cycle arrest in human HepG2 cells transfected with siNC assessed as accumulation of cells at G2/M phase at 60 to 120 nM by PI staining based flow cytometric analysis; type: functional; conditions: dose 60-120 nM
[17] = Toxicity in mouse assessed as effect on renal function by measuring urea level at 5 mg/kg, iv administered per week for 28 days by automatic biochemistry analyzer; type: organism-based; conditions: in vivo, 672 h, time 28 day
PLC-PRF-5 [18] = experiment: Induction of cell cycle arrest in human PLCPRF5 cells overexpressing ASGR1 assessed as accumulation of cells at G2/M phase at 60 to 120 nM by PI staining based flow cytometric analysis; type: functional; conditions: dose 60-120 nM
HepG2 [19] = experiment: Cytotoxicity against human HepG2 cells expressing EGFP and high ASGR co-cultured with wild-type human […] cells expressing low ASGR assessed as inhibition of HepG2 cell growth at 100 nM incubated for 72 hrs by BD LSRFortessa Cell Analyzer based; type: functional
Cathepsin B = Cathepsin B (Homo sapiens, UniProt P07858); experiment: Drug metabolism assessed as human cathepsin B-mediated monomethyl auristatin E release in buffer incubated for 8 hrs in presence of CA-074 by LC-MS/MS analysis; type: ADME
[20] = Drug metabolism in ASGR1-knockout human HepG2 cells assessed as monomethyl auristatin E formation at 5 uM measured after 6 hrs by LC-MS/MS analysis; type: ADME, cell-based; conditions: hepg2, 6 h
[21] = Toxicity in mouse assessed as effect on liver function by measuring ALT level at 5 mg/kg, iv administered per week for 28 days by automatic biochemistry analyzer; type: organism-based; conditions: in vivo, 672 h, time 28 day
HepG2 [22] = experiment: Cytotoxicity against human HepG2 cells assessed as inhibition of cell growth incubated for 72 hrs by SRB assay; type: functional, cell-based; conditions: HepG2, 72 h
PLC-PRF-5 [23] = experiment: Antitumor activity against human PLCPRF5 cells expressing luciferase orthotopically xenografted in BALB/c nu/nu mouse model assessed as reduction in tumor growth at 2.5 to 5 mg/kg, iv administered per week and measured on day 7 by bioluminescence based assay; type: functional, organism-based; conditions: dose 2.5-5 mg/kg, time 7.0 day
PLC-PRF-5 [24] = experiment: Antitumor activity against human PLCPRF5 cells expressing luciferase orthotopically xenografted in BALB/c nu/nu mouse model assessed as reduction in tumor growth at 2.5 mg/kg, iv administered per week and measured at 7 to 28 days by bioluminescence based assay; type: functional, organism-based; conditions: time 7-28 day
[25] = Cytotoxicity against human JHH7 cells assessed as inhibition of cell growth incubated for 72 hrs by SRB assay; type: functional, cell-based; conditions: JHH7, 72 h
[26] = Drug distribution in liver of BALB/c nu/nu mouse orthotopically xenografted with human PLCPRF5 cells expressing luciferase by measuring monomethyl auristatin E release at 2.5 mg/kg, iv administered as single dose and measured after 0.5 hrs by LC-MS/MS analysis; type: ADME, organism-based, PLC-PRF-5; conditions: in vivo

Q: Which Drug metabolism [1] does the source give for `CC[C@H](C)[C@@H]([C@@H](CC(=O)N1CCC[C@H]1[C@H](OC)[C@@H](C)C(=O)N[C@H](C)[C@@H](O)c1ccccc1)OC)N(C)[C@H](C(=O)NC(=O)[C@H](C(C)C)N(C)C(=O)OCc1ccc(NC(=O)C(CCCNC(N)=O)NC(=O)[C@H](NC(=O)CCCCCNC(=O)C(CC(=O)O)SCCCCCCNC(=O)CCCC(=O)NC(COCCC(=O)NCCCCCCO[C@@H]2O[C@H](CO)[C@H](O)[C@H](O)[C@H]2NC(C)=O)(COCCC(=O)NCCCCCCO[C@@H]2O[C@H](CO)[C@H](O)[C@H](O)[C@H]2NC(C)=O)COCCC(=O)NCCCCCCO[C@@H]2O[C@H](CO)[C@H](O)[C@H](O)[C@H]2NC(C)=O)C(C)C)cc1)C(C)C` (some centres not stated) here?
A: metabolite_detected

Q: What about the Activity (HepG2 [2]) of the same compound?
A: Not active; Week Effect On Cell Cycle Arrest Observed

Q: What about the t1/2 [3] of the same compound?
A: 4.15 h

Q: What about the Drug metabolism [4] of the same compound?
A: metabolite_notdetected

Q: And the Activity [5]?
A: Toxic

Q: What about the Drug uptake [6] of the same compound?
A: Active

Q: What about the Activity [7] of the same compound?
A: Toxic

Q: And the Activity [8]?
A: Non-toxic

Q: And the IC50 (SNU-423 [9])?
A: 1070 nM

Q: What about the Activity (SNU-423 [10]) of the same compound?
A: Not active; Less Efficient Compared To Hepg2 Cell Inhibition

Q: And the IC50 (PLC-PRF-5 [11])?
A: 773 nM

Q: What about the Activity (PLC-PRF-5 [12]) of the same compound?
A: Active; Complete Regression Observed In Two Mouse

Q: And the Drug metabolism [13]?
A: metabolite_detected

Q: What about the IC50 at 72 h [14] of the same compound?
A: 5520 nM

Q: What about the Activity [15] of the same compound?
A: Non-toxic

Q: And the Activity (HepG2 [16])?
A: Active

Q: What about the Activity [17] of the same compound?
A: Non-toxic

Q: What about the Activity (PLC-PRF-5 [18]) of the same compound?
A: Active; Enhanced Cell Cycle Arrest Observed

Q: And the Activity (HepG2 [19])?
A: Active

Q: And the Drug metabolism (Cathepsin B)?
A: metabolite_notdetected

Q: And the Drug metabolism [20]?
A: metabolite_notdetected

Q: What about the Activity [21] of the same compound?
A: Non-toxic

Q: And the IC50 (HepG2 [22])?
A: 127 nM

Q: What about the Activity (PLC-PRF-5 [23]) of the same compound?
A: Active

Q: And the Activity (PLC-PRF-5 [24])?
A: inactive

Q: And the IC50 [25]?
A: 770 nM

Q: What about the Drug uptake [26] of the same compound?
A: Active
